Measurements from patent publication US9414596B2, “Metalloenzyme inhibitor compounds” (Viamet Pharmaceuticals, Inc., priority 2012, dated 2016).
Values after ≈ are worked out from the molar mass of the structure shown.

The compounds below were run on Septoria tritici (ATCC 26517) (assay: Minimum Inhibitory Concentration (MIC) (Septoria tritici), CLSI-based microdilution). Conditions: Zymoseptoria tritici, ATCC26517, 168 h, S. tritici ATCC 26517; seven days at 22° C. in the dark; MIC = 50% reduction in growth, visual; read-out: Septoria MIC Rating.
Format: cell-based
Experimental: B. Minimum Inhibitory Concentration (MIC) (Septoria tritici)
Compounds of the present disclosure were assessed for their ability to inhibit the growth of a common strain of the fungal plant pathogen Septoria tritici (ATCC 26517) using a procedure based on a Clinical and Laboratory Standards Institute (CLSI) microdilution assay protocol for filamentous fungi.
Stock solutions of the test compounds and standards were prepared in DMSO at 6400 μg/mL. Each stock solution was used to prepare a 2-fold dilution series ranging from 16 to 0.016 μg/mL (total of 11 compound concentrations) in RPMI-1640 (Roswell Park Memorial Institute) medium containing 3-(N-morpholino)propanesulfonic acid (MOPS) buffer and 2% DMSO. A 100 μL aliquot of the dilutions was added to columns 1 (16 μg/mL compound) through 11 (0.016 μg/mL compound) of a 96-well microtiter plate. This format was replicated in a second row of the microtiter plate. Thus, each microtiter plate could include 11 concentrations of four test or control compounds replicated twice. A 100 μL aliquot of RPMI-1640/MOPS/2% DMSO medium was added to column 12 (no compound control) of the microtiter plate.
A fresh culture of S. tritici was used to prepare a solution of approximately 5×10^4 colony-forming units per milliliter (cfu/mL) in RPMI/MOPS medium without DMSO. A 100 μL aliquot of this solution was added to all 96 wells in the microtiter plate. […] The assay plates were incubated at 22° C. for seven days in the dark without shaking.

SMILES	MIC
N#Cc1cccc(-c2ccc(C(F)(F)C(O)(Cn3cnnn3)c3ccc(F)cc3F)nc2)c1 (stereo not shown) [Example 3, 3-(6-(2-(2,4-Difluorophenyl)-1,1-difluoro-2-hydroxy-3-(1H-tetrazol-1-yl)propyl)pyridin-3-yl)benzonitrile]	1.5 to 4 µg/mL (≈ 3.3 to 8.8 µM)
OC(Cn1cnnn1)(c1ccc(F)cc1F)C(F)(F)c1ccc(-c2cccc(OC(F)(F)F)c2)cn1 (stereo not shown) [Example 6, 2-(2,4-Difluorophenyl)-1,1-difluoro-3-(1H-tetrazol-1-yl)-1-(5-(3-(trifluoromethoxy)phenyl)-pyridin-2-yl)propan-2-ol]	1.5 to 4 µg/mL (≈ 2.92 to 7.79 µM)
OC(Cn1cnnn1)(c1ccc(F)cc1F)C(F)(F)c1ccc(-c2cccc(Cl)c2)cn1 (stereo not shown) [Example 8, 1-(5-(3-Chlorophenyl)pyridin-2-yl)-2-(2,4-difluorophenyl)-1,1-difluoro-3-(1H-tetrazol-1-yl)propan-2-ol]	0.5 to 1.5 µg/mL (≈ 1.08 to 3.23 µM)
OC(Cn1ncnn1)(c1ccc(F)cc1F)C(F)(F)c1ccc(-c2cccc(F)c2)cn1 (stereo not shown) [Example 21]	> 4 µg/mL
OC(Cn1ncnn1)(c1ccc(F)cc1F)C(F)(F)c1ccc(-c2ccc(C(F)(F)F)cc2)cn1 (stereo not shown) [Example 22]	> 4 µg/mL
Oc1ccc(-c2ccc(C(F)(F)C(O)(Cn3cnnn3)c3ccc(F)cc3F)nc2)cc1 (stereo not shown) [Example 23, 4-(6-(2-(2,4-Difluorophenyl)-1,1-difluoro-2-hydroxy-3-(1H-tetrazol-1-yl)propyl)pyridin-3-yl)phenol]	1.5 to 4 µg/mL (≈ 3.37 to 8.98 µM)
CC(C)c1cccc(-c2ccc(C(F)(F)C(O)(Cn3cnnn3)c3ccc(F)cc3F)nc2)c1 (stereo not shown) [Example 24, 2-(2,4-Difluorophenyl)-1,1-difluoro-1-(5-(3-isopropylphenyl)pyridin-2-yl)-3-(1H-tetrazol-1-yl)propan-2-ol]	0.5 to 1.5 µg/mL (≈ 1.06 to 3.18 µM)
OC(Cn1cnnn1)(c1ccc(F)cc1F)C(F)(F)c1ccc(-c2cccc(OC(F)F)c2)cn1 (stereo not shown) [Example 26, 1-(5-(3-(Difluoromethoxy)phenyl)pyridin-2-yl)-2-(2,4-difluorophenyl)-1,1-difluoro-3-(1H-tetrazol-1-yl)propan-2-ol]	0.5 to 1.5 µg/mL (≈ 1.01 to 3.03 µM)
CC(C)(C)Oc1ccc(-c2ccc(C(F)(F)C(O)(Cn3cnnn3)c3ccc(F)cc3F)nc2)cc1 (stereo not shown) [Example 28, 1-(5-(4-(tert-Butoxy)phenyl)pyridin-2-yl)-2-(2,4-difluorophenyl)-1,1-difluoro-3-(1H-tetrazol-1-yl)propan-2-ol]	< 0.5 µg/mL
OC(Cn1cnnn1)(c1ccc(F)cc1F)C(F)(F)c1ccc(-c2ccc(Cl)c(F)c2)cn1 (stereo not shown) [Example 29, 1-(5-(4-Chloro-3-fluorophenyl)pyridin-2-yl)-2-(2,4-difluorophenyl)-1,1-difluoro-3-(1H-tetrazol-1-yl)propan-2-ol]	1.5 to 4 µg/mL (≈ 3.11 to 8.3 µM)
OC(Cn1cnnn1)(c1ccc(F)cc1F)C(F)(F)c1ccc(-c2cccc(C(F)(F)F)c2)cn1 (stereo not shown) [Example 31, 2-(2,4-Difluorophenyl)-1,1-difluoro-3-(1H-tetrazol-1-yl)-1-(5-(3-(trifluoromethyl)phenyl)pyridin-2-yl)propan-2-ol]	0.5 to 1.5 µg/mL (≈ 1.01 to 3.02 µM)
O=[N+]([O-])c1ccc(-c2ccc(C(F)(F)C(O)(Cn3cnnn3)c3ccc(F)cc3F)nc2)cc1 (stereo not shown) [Example 32, 2-(2,4-Difluorophenyl)-1,1-difluoro-1-(5-(4-nitrophenyl)pyridin-2-yl)-3-(1H-tetrazol-1-yl)propan-2-ol]	0.5 to 1.5 µg/mL (≈ 1.05 to 3.16 µM)
O=C(c1ccc(-c2ccc(C(F)(F)C(O)(Cn3cnnn3)c3ccc(F)cc3F)nc2)cc1)C(F)(F)F (stereo not shown) [Example 33, 1-(4-(6-(2-(2,4-Difluorophenyl)-1,1-difluoro-2-hydroxy-3-(1H-tetrazol-1-yl)propyl)pyridin-3-yl)phenyl)-2,2,2-trifluoroethanone]	0.5 to 1.5 µg/mL (≈ 0.952 to 2.86 µM)
OC(Cn1cnnn1)(c1ccc(F)cc1F)C(F)(F)c1ccc(-c2ccccc2)cn1 (stereo not shown) [Example 35, 2-(2,4-Difluorophenyl)-1,1-difluoro-1-(5-phenylpyridin-2-yl)-3-(1H-tetrazol-1-yl)propan-2-ol]	< 0.5 µg/mL
OC(Cn1cnnn1)(c1ccc(F)cc1F)C(F)(F)c1ccc(-c2ccc(N3CCOCC3)cc2)cn1 (stereo not shown) [Example 36, 2-(2,4-Difluorophenyl)-1,1-difluoro-1-(5-(4-morpholinophenyl)pyridin-2-yl)-3-(1H-tetrazol-1-yl)propan-2-ol]	< 0.5 µg/mL
O=C(Nc1ccc(-c2ccc(C(F)(F)C(O)(Cn3cnnn3)c3ccc(F)cc3F)nc2)cc1)C(F)(F)F (stereo not shown) [Example 37, N-(4-(6-(2-(2,4-Difluorophenyl)-1,1-difluoro-2-hydroxy-3-(1H-tetrazol-1-yl)propyl)pyridin-3-yl)phenyl)-2,2,2-trifluoroacetamide]	< 0.5 µg/mL
OC(Cn1cnnn1)(c1ccc(F)cc1F)C(F)(F)c1ccc(-c2ccc(OC(F)F)cc2)cn1 (stereo not shown) [Example 38, 1-(5-(4-(Difluoromethoxy)phenyl)pyridin-2-yl)-2-(2,4-difluorophenyl)-1,1-difluoro-3-(1H-tetrazol-1-yl)propan-2-ol]	< 0.5 µg/mL
OC(Cn1cnnn1)(c1ccc(F)cc1F)C(F)(F)c1ccc(-c2ccc(SC(F)F)cc2)cn1 (stereo not shown) [Example 40, 1-(5-(4-((Difluoromethyl)thio)phenyl)pyridin-2-yl)-2-(2,4-difluorophenyl)-1,1-difluoro-3-(1H-tetrazol-1-yl)propan-2-ol]	< 0.5 µg/mL

Other lines, results leading:

MIC	SMILES
< 0.5 µg/mL	N#Cc1ccc(-c2ccc(C(F)(F)C(O)(Cn3cnnn3)c3ccc(F)cc3F)nc2)cc1 (stereo not shown) [Example 1, 4-(6-(2-(2,4-Difluorophenyl)-1,1-difluoro-2-hydroxy-3-(1H-tetrazol-1-yl)propyl)pyridin-3-yl)benzonitrile]
< 0.5 µg/mL	CC(C)Oc1ccc(-c2ccc(C(F)(F)C(O)(Cn3cnnn3)c3ccc(F)cc3F)nc2)cc1 (stereo not shown) [Example 4, 2-(2,4-Difluorophenyl)-1,1-difluoro-1-(5-(4-isopropoxyphenyl)pyridin-2-yl)-3-(1H-tetrazol-1-yl)propan-2-ol]
< 0.5 µg/mL	OC(Cn1cnnn1)(c1ccc(F)cc1F)C(F)(F)c1ccc(-c2ccc(F)cc2)cn1 (stereo not shown) [Example 5, 2-(2,4-Difluorophenyl)-1,1-difluoro-1-(5-(4-fluorophenyl)pyridin-2-yl)-3-(1H-tetrazol-1-yl)propan-2-ol]
< 0.5 µg/mL	OC(Cn1cnnn1)(c1ccc(F)cc1F)C(F)(F)c1ccc(-c2ccc(OC(F)(F)F)cc2)cn1 (stereo not shown) [Example 7, 2-(2,4-Difluorophenyl)-1,1-difluoro-3-(1H-tetrazol-1-yl)-1-(5-(4-(trifluoromethoxy)phenyl)-pyridin-2-yl)propan-2-ol]
< 0.5 µg/mL	OC(Cn1cnnn1)(c1ccc(F)cc1F)C(F)(F)c1ccc(-c2ccc(Cl)cc2)cn1 (stereo not shown) [Example 9, 1-(5-(4-Chlorophenyl)pyridin-2-yl)-2-(2,4-difluorophenyl)-1,1-difluoro-3-(1H-tetrazol-1-yl)propan-2-ol]
< 0.5 µg/mL	OC(Cn1cnnn1)(c1ccc(F)cc1F)C(F)(F)c1ccc(-c2cc(F)ccc2F)cn1 (stereo not shown) [Example 10, 2-(2,4-Difluorophenyl)-1-(5-(2,5-difluorophenyl)pyridin-2-yl)-1,1-difluoro-3-(1H-tetrazol-1-yl)propan-2-ol]
< 0.5 µg/mL	OC(Cn1cnnn1)(c1ccc(F)cc1F)C(F)(F)c1ccc(-c2ccc(OCC(F)(F)F)cc2)cn1 (stereo not shown) [Example 11, 2-(2,4-Difluorophenyl)-1,1-difluoro-3-(1H-tetrazol-1-yl)-1-(5-(4-(2,2,2-trifluoroethoxy)phenyl)pyridin-2-yl)propan-2-ol]
< 0.5 µg/mL	OC(Cn1cncn1)(c1ccc(F)cc1F)C(F)(F)c1ccc(-c2ccc(F)cc2)cn1 (stereo not shown) [Example 16, 2-(2,4-Difluorophenyl)-1,1-difluoro-1-(5-(4-fluorophenyl)pyridin-2-yl)-3-(1H-1,2,4-triazol-1-yl)propan-2-ol]
< 0.5 µg/mL	OC(Cn1cncn1)(c1ccc(F)cc1F)C(F)(F)c1ccc(-c2ccc(OC(F)(F)F)cc2)cn1 (stereo not shown) [Example 18, 2-(2,4-Difluorophenyl)-1,1-difluoro-3-(1H-1,2,4-triazol-1-yl)-1-(5-(4-(trifluoromethoxy)phenyl)pyridin-2-yl) propan-2-ol]
< 0.5 µg/mL	OC(Cn1cnnn1)(c1ccc(F)cc1F)C(F)(F)c1ccc(-c2ccc(F)c(F)c2)cn1 (stereo not shown) [Example 25, 2-(2,4-Difluorophenyl)-1-(5-(3,4-difluorophenyl)pyridin-2-yl)-1,1-difluoro-3-(1H-tetrazol-1-yl)propan-2-ol]
< 0.5 µg/mL	OC(Cn1cnnn1)(c1ccc(F)cc1F)C(F)(F)c1ccc(-c2ccc(SC(F)(F)F)cc2)cn1 (stereo not shown) [Example 27, 2-(2,4-Difluorophenyl)-1,1-difluoro-3-(1H-tetrazol-1-yl)-1-(5-(4-((trifluoromethyl)thio)phenyl)pyridin-2-yl)propan-2-ol]
< 0.5 µg/mL	Oc1cccc(-c2ccc(C(F)(F)C(O)(Cn3cnnn3)c3ccc(F)cc3F)nc2)c1 (stereo not shown) [Example 30, 3-(6-(2-(2,4-Difluorophenyl)-1,1-difluoro-2-hydroxy-3-(1H-tetrazol-1-yl)propyl)pyridin-3-yl)phenol]
< 0.5 µg/mL	OC(Cn1cnnn1)(c1ccc(Cl)cc1F)C(F)(F)c1ccc(-c2ccc(OC(F)(F)F)cc2)cn1 (stereo not shown) [Example 34, 2-(4-Chloro-2-fluorophenyl)-1,1-difluoro-3-(1H-tetrazol-1-yl)-1-(5-(4-(trifluoromethoxy)phenyl)pyridin-2-yl)propan-2-ol]
